Measurements from US8741886B2, “Baclofen and acamprosate based therapy of neurological disorders” (Pharnext, priority 2011, dated 2014).

Legend:
rat cortical neurons = test: Toxicity of Aβ1-42 in neurite growth model: total length of neurite network; type: cell-based; conditions: Aβ1-42 2.5 μM; single drugs at the concentrations used in the combination
Procedure: Rat cortical neurons were cultured as described by Singer et al. (35). Briefly pregnant female rats of 15 days gestation were killed by cervical dislocation (Rats Wistar) and the foetuses were removed from the uterus. The cortex was removed and placed in ice-cold medium of Leibovitz (L15) containing 2% of Penicillin 10.000 U/ml and Streptomycin 10 mg/ml and 1% of bovine serum albumin (BSA). Cortices were dissociated by trypsin for 20 min at 37° C. (0.05%). The reaction was stopped by the addition of Dulbecco's modified Eagle's medium (DMEM) containing DNasel grade II and 10% of foetal calf serum (FCS). Cells were then mechanically dissociated by 3 serial passages through a 10 ml pipette and centrifuged at 515×g for 10 min at +4° C. […] Viable cells were counted in a Neubauer cytometer using the trypan blue exclusion test. […]
After 24 hours of intoxication, the supernatant is taken off and the cortical neurons are fixed by a cold solution of ethanol (95%) and acetic acid (5%) for 5 min. […] Then, cells are incubated with monoclonal antibody anti microtubule-associated-protein 2 (MAP-2; Sigma) or with anti synaptophysin (SYN, S5798, Sigma) together with anti PSD95 (P246, Sigma) antibodies in order to quantify synapses. […]

[1] = system: rat primary cortical cells; test: Toxicity of human Aβ1-42 peptide on primary cortical neuron cells: LDH release; type: cell-based; conditions: for effect on Aβ1-42 intoxication, LDH release (in words): Aβ1-42 10 μM, single drugs at the concentrations used in the combination
Procedure: Rat cortical neurons were cultured as described by Singer et al. (47). Briefly pregnant female rats of 15 days gestation were killed by cervical dislocation (Rats Wistar) and the foetuses were removed from the uterus. The cortex was removed and placed in ice-cold medium of Leibovitz (L15) containing 2% of Penicillin 10.000 U/ml and Streptomycin 10 mg/ml and 1% of bovine serum albumin (BSA). Cortexes were dissociated by trypsin for 20 min at 37° C. (0.05%). The reaction was stopped by the addition of Dulbecco's modified Eagle's medium (DMEM) containing DNasel grade II and 10% of foetal calf serum (FCS). Cells were then mechanically dissociated by 3 serial passages through a 10 ml pipette and centrifuged at 515×g for 10 min at +4° C. The supernatant was discarded and the pellet of cells was re-suspended in a defined culture medium consisting of Neurobasal supplemented with B27 (2%), L-glutamine (0.2 mM), 2% of PS solution and 10 ng/ml of BDNF. Viable cells were counted in a Neubauer cytometer using the trypan blue exclusion test. The cells were seeded at a density of 30 000 cells/well in 96 well-plates (wells were pre-coated with poly-L-lysine (10 μg/ml)) and were cultured at +37° C. in a humidified air (95%)/CO2 (5%) atmosphere.
Briefly, Aβ1-42 peptide was reconstituted in define culture medium at 40 μM (mother solution) and was slowly shaken at +37° C. for 3 days in dark. The control medium was prepared in the same conditions.
After 10 days of neuron culture, test compounds were solved in culture medium (+0.1% DMSO) and then pre-incubated with neurons for 1 hour before the Aβ1-42 application (in a final volume per culture well of 100 μl). One hour after test compound(s) incubation, 100 μl of Aβ1-42 peptide was added to a final concentration of 10 μM diluted in presence of drug(s), in order to avoid further test compound(s) dilutions. Cortical neurons were intoxicated for 24 hours. Three separate cultures were performed per condition, 6 wells per condition.
BDNF (50 ng/ml) and Estradiol-β (150 nM) were used as positive control and reference compounds respectively. Three separate cultures will be performed per condition, 12 wells per condition.
Estradiol-β at 150 nM was used as a positive control (FIG. 4).
Estradiol-β was solved in culture medium and pre-incubated for 1 h before the amyloid-β1-42 application.
The following conditions were assessed: • CONTROL PLAQUE: 12 wells/condition • Negative Control: medium alone+0.1% DMSO • Intoxication: amyloid-β1-42 (10 μM) for 24 h • Reference compound: Estradiol (150 nM) 1 hr. • DRUG PLATE: 6 wells/condition • Negative Control: medium alone+0.1% DMSO • Intoxication: amyloid-β1-42 (10 μM) for 24 h • Test compound(s): test compound(s)—1 hr followed by amyloid-β1-42 (10 μM) for 24 h Lactate Dehydrogenase (LDH) Activity Assay
24 hours after intoxication, the supernatant was taken off and analyzed with Cytotoxicity Detection Kit (LDH, Roche Applied Science, ref: 11644793001, batch: 11800300). This colorimetric assay for the quantification of cell toxicity is based on the measurement of lactate dehydrogenase (LDH) activity released from the cytosol of dying cells into the supernatant.
Data were expressed in percentage of control conditions (no intoxication, no amyloid=100%) in order to express the amyloid injury. All values were expressed as mean+/−SEM (s.e.mean) of the 3 cultures (n=6 wells per condition). Statistic analyses were done on the different conditions (ONE-WAY ANOVA followed by the Dunnett's test when it was allowed, Statview software version 5.0).

CC(=O)NCCCS(=O)(=O)O [Acamprosate]
effect on Aβ1-42 intoxication, total length of neurites network (in words) (rat cortical neurons): no significant effect
prevention of Aβ1-42 intoxication by pre-treatment ([1]; 8 nM): 99%
effect on Aβ1-42 intoxication, LDH release (in words) [1]: no significant effect

NCC(CC(=O)O)c1ccc(Cl)cc1 (centres unmarked) [Baclofen]
effect on Aβ1-42 intoxication, total length of neurites network (in words) (rat cortical neurons): no significant effect
effect on Aβ1-42 intoxication, LDH release (in words) [1]: no significant effect
